Measurements as given in ChEMBL document CHEMBL5518235, “Identification of Novel Series of Potent and Selective Relaxin Family Peptide Receptor 1 (RXFP1) Agonists” (J Med Chem, 2024).
Values after ≈ are worked out from the molar mass of the structure shown. Active and inactive are the calls of the source. The calls are words filed in the database; no cut-off is given here.

Key:
[1] = molecular target: T1, Relaxin receptor 1 (Rattus norvegicus) (UniProt Q6R6I6); assay: In vivo agonist activity at RXFP1 in Sprague-Dawley rat assessed as hemodynamic effect by measuring increase in heart rate at 1.5 mg/kg, iv administered via bolus followed by 9.0 mg/kg, iv administered via infusion for 3 hrs and measured 1 hrs post washout; format: functional, organism-based
T1 sequence (whole entry): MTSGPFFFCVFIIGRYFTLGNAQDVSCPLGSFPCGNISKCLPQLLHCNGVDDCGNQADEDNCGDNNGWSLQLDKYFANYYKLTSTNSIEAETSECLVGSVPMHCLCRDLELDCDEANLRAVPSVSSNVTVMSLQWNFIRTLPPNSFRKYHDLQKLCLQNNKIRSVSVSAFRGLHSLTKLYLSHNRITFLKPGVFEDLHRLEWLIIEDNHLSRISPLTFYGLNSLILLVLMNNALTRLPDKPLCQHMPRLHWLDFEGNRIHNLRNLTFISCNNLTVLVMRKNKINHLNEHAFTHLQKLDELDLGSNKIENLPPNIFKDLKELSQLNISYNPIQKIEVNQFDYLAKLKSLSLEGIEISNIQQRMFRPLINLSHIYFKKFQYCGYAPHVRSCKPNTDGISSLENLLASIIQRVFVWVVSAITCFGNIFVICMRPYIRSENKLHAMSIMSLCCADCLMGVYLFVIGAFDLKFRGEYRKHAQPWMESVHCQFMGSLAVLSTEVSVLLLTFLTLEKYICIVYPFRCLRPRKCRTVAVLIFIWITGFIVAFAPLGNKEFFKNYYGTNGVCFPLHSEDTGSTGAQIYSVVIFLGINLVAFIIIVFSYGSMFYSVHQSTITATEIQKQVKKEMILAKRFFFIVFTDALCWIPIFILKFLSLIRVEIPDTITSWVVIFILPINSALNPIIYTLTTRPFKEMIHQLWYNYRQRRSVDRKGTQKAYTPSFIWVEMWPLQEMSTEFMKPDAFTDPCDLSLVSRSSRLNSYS

[2] = Oral bioavailability in Han Wistar rat at 1.46 micromol/kg by LC-MS/MS analysis; format: ADME, organism-based; settings: in vivo, 1.46 µmol/kg
[3] = Protein binding in rat plasma assessed as free fraction at 5 uM incubated for 18 hrs by equilibrium dialysis based LC-MS/MS analysis; format: ADME, cell-free
[4] = Metabolic stability in cryopreserved human hepatocytes assessed as intrinsic clearance measured per 10^6 cells at 1 uM after 120 mins by LC-MS/MS analysis; format: ADME, cell-based, Hepatocyte; settings: hepatocytes, 2 h, 1 µM
[5] = Metabolic stability in Han Wistar rat hepatocytes assessed as intrinsic clearance measured per 10^6 cells at 1 uM after 120 mins by LC-MS/MS analysis; format: ADME, cell-based, Hepatocyte; settings: read-out: CLH
Relaxin receptor 1 [6] = molecular target: T2, Relaxin receptor 1 (Homo sapiens, UniProt Q9HBX9); assay: Agonist activity at human RXFP1 expressed in T-Rex-CHO-K1 cells assessed as stimulation of cAMP production by measuring unbound concentration incubated for 45 mins by HTRF assay
T2 sequence (Q9HBX9 whole entry): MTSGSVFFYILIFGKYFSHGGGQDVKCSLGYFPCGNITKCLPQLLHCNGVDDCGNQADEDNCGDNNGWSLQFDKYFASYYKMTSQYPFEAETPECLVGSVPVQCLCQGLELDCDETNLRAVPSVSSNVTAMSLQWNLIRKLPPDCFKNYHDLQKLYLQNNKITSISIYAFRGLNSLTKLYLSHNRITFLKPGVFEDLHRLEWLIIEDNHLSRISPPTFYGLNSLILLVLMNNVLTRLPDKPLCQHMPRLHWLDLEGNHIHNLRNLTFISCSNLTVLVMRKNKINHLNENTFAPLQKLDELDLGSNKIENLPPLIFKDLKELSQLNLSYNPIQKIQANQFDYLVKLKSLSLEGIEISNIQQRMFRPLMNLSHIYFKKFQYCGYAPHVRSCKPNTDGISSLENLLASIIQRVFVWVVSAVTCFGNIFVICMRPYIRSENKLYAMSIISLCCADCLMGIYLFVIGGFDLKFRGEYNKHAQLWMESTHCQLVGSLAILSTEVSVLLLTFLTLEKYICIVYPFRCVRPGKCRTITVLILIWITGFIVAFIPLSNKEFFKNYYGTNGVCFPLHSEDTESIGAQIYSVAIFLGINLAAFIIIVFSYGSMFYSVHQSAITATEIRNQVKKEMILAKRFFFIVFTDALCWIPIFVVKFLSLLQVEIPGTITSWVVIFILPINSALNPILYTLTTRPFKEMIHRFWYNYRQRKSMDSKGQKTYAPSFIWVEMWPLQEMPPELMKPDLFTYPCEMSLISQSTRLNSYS

[7] = Clearance in Han Wistar rat at 0.73 micromol/kg, iv by LC-MS/MS analysis; format: ADME, organism-based; settings: in vivo, dose 0.73 µmol/kg
[8] = Metabolic stability in cryopreserved human hepatocytes assessed as unbound intrinsic clearance measured per 10^6 cells at 1 uM measured after 120 mins by LC-MS/MS analysis; format: ADME, cell-based, Hepatocyte; settings: 2 h
[9] = Genotoxicity in human A549 upto 1000 uM by micronucleus test; format: toxicity, cell-based; settings: a549, 1000 µM
[10] = Cytotoxicity against human THP-1 cells assessed as reduction of cell viability incubated for 48 hrs by resazurin reduction assay; format: toxicity, cell-based
Relaxin receptor 1 [11] = molecular target: T3, Relaxin receptor 1 (Rattus norvegicus, UniProt Q6R6I6); assay: Agonist activity at rat RXFP1 expressed in T-Rex-CHO-K1 cells assessed as stimulation of cAMP production incubated for 60 mins by HTRF assay; format: functional, cell-based
T3 sequence (Q6R6I6 whole entry): T1 sequence (whole entry)

[12] = molecular target: T4, A-type voltage-gated potassium channel KCND3 (Homo sapiens, UniProt Q9UK17); assay: Inhibition of human Kv4.3 by automated electrophysiology recording; format: toxicity
T4 sequence (Q9UK17 whole entry): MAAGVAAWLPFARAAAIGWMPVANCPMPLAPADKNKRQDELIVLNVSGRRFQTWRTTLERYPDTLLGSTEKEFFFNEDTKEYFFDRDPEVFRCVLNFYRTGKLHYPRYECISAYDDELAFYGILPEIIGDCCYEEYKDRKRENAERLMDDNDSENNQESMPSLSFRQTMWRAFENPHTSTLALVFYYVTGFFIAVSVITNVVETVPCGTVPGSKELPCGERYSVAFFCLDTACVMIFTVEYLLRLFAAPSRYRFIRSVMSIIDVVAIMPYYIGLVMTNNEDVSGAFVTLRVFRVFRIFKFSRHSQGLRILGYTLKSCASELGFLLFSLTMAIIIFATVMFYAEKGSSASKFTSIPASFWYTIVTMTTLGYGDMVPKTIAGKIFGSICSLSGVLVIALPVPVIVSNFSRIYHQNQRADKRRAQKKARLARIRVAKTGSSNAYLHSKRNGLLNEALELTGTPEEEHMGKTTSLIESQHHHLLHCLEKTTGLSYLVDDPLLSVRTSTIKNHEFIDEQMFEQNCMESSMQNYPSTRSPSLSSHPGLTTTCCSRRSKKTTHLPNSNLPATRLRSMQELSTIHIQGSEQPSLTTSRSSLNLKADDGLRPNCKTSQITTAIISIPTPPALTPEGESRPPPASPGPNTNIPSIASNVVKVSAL

[13] = Solubility of compound in FaSSIF at pH 6.5; format: ADME
IKs channel = assay: Inhibition of human IKS channel by automated electrophysiology recording; format: toxicity

bioavailability [2]: 11% | fraction unbound at 18 h, 5 µM [3]: 0.0015 | CLH [4]: 21 µL/min/1e6 cells | hepatocyte CLint at 1 µM [5]: 24 µL/min/1e6 cells | EC50 (Relaxin receptor 1 [6]): < 31.6 pM | clearance [7]: 38 mL/min/kg | CL free [8]: 2.1 µL/min | EC50 (Relaxin receptor 1 [11]): 0.2 µM | solubility [13]: 6.3 µM (≈ 4.3 µg/mL)
SMILES: COc1cc(F)c(O[C@H]2CC[C@@](C)(C(=O)O)CC2)cc1C(=O)N[C@@H]1[C@H]2CC[C@H](C2)[C@@H]1C(=O)Nc1ccc(F)c(S(F)(F)(F)(F)F)c1
Activity [1]: Active | Activity [9]: Non-Toxic | IC50 at 48 h [10]: 15 µM | IC50 [12]: > 33 µM | IC50 (IKs channel): > 33 µM
